According to patent US20260015358A1, “BICYCLIC DERIVATIVES, COMPOSITIONS AND USES THEREOF” (Danatlas Pharmaceuticals Co., Ltd., priority 2023, published 2026):

Experiments:
[1] = target: T1, WRN [UniPro: Q14191 (WRN_HUMAN), N500-C946] (Homo sapiens (Human), UniProt Q14191); assay: WRN unwinding assay (FORKF DNA, fluorescence); format: biochemical; conditions: Table 14
[2] = target: T1, WRN [UniPro: Q14191 (WRN_HUMAN), N500-C946]; assay: WRN ATPase assay (ADP-Glo); format: biochemical; conditions: WRN enzymatic activity assay

T1 sequence (Q14191 500-946): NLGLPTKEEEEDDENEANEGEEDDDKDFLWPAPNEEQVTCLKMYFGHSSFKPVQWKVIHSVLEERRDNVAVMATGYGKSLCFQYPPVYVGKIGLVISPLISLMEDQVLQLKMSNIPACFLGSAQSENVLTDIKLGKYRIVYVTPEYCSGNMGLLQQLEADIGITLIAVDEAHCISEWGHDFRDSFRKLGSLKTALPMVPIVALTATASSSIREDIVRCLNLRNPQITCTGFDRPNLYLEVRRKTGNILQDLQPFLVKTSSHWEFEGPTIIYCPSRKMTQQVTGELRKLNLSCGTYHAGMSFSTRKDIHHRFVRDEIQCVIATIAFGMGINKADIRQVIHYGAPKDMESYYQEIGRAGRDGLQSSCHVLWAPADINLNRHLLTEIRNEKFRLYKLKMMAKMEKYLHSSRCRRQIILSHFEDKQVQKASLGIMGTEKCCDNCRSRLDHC

Row | IC50 [1] [nM] | IC50 [2] [nM] | SMILES
1 | < 100 | < 100 | CCc1c(N2CCN(C(=O)CNC(=O)c3nc(N)ccc3F)CC2)c(=O)n2nc(C3=CCOCC3)nc2n1CC(=O)Nc1ccc(C(F)(F)F)cc1Cl [Example 367, 6-Amino-N-(2-(4-(4-(2-((2-chloro-4-(trifluoromethyl)phenyl)amino)-2-oxoethyl)-2-(3,6-dihydro-2H-pyran-4-yl)-5-ethyl-7-oxo-4,7-dihydro-[1,2,4]triazolo[1,5-a]pyrimidin-6-yl)piperazin-1-yl)-2-oxoethyl)-3-fluoropicolinamide]
2 | < 100 | < 100 | CCc1c(N2CCN(C(=O)CNC(=O)c3nc(C)ncc3O)CC2)c(=O)n2nc(C3=CCOCC3)nc2n1CC(=O)Nc1ccc(C(F)(F)F)cc1Cl [Example 368, N-(2-(4-(4-(2-((2-Chloro-4-(trifluoromethyl)phenyl)amino)-2-oxoethyl)-2-(3,6-dihydro-2H-pyran-4-yl)-5-ethyl-7-oxo-4,7-dihydro-[1,2,4]triazolo[1,5-a]pyrimidin-6-yl)piperazin-1-yl)-2-oxoethyl)-5-hydroxy-2-methylpyrimidine-4-carboxamide]
3 | < 100 | < 100 | CCc1c(N2CCN(C(=O)CNC(=O)c3ccns3)CC2)c(=O)n2nc(C3=CCOCC3)nc2n1CC(=O)Nc1ccc(C(F)(F)F)cc1Cl [Example 369, N-(2-(4-(4-(2-((2-Chloro-4-(trifluoromethyl)phenyl)amino)-2-oxoethyl)-2-(3,6-dihydro-2H-pyran-4-yl)-5-ethyl-7-oxo-4,7-dihydro-[1,2,4]triazolo[1,5-a]pyrimidin-6-yl)piperazin-1-yl)-2-oxoethyl) isothiazole-5-carboxamide]
4 | < 100 | < 100 | CCc1c(N2CCN(C(=O)CNC(=O)c3ccno3)CC2)c(=O)n2nc(C3=CCOCC3)nc2n1CC(=O)Nc1ccc(C(F)(F)F)cc1Cl [Example 370, N-(2-(4-(4-(2-((2-Chloro-4-(trifluoromethyl)phenyl)amino)-2-oxoethyl)-2-(3,6-dihydro-2H-pyran-4-yl)-5-ethyl-7-oxo-4,7-dihydro-[1,2,4]triazolo[1,5-a]pyrimidin-6-yl)piperazin-1-yl)-2-oxoethyl) isoxazole-5-carboxamide]
5 | < 100 | < 100 | CCc1c(N2CCN(C(=O)CNC(=O)c3ccon3)CC2)c(=O)n2nc(C3=CCOCC3)nc2n1CC(=O)Nc1ccc(C(F)(F)F)cc1Cl [Example 371, N-(2-(4-(4-(2-((2-Chloro-4-(trifluoromethyl)phenyl)amino)-2-oxoethyl)-2-(3,6-dihydro-2H-pyran-4-yl)-5-ethyl-7-oxo-4,7-dihydro-[1,2,4]triazolo[1,5-a]pyrimidin-6-yl)piperazin-1-yl)-2-oxoethyl) isoxazole-3-carboxamide]
6 | < 100 | < 100 | CCc1c(N2CCN(C(=O)CNC(=O)c3cc(N)ccc3F)CC2)c(=O)n2nc(C3=CCOCC3)nc2n1CC(=O)Nc1ccc(C(F)(F)F)cc1Cl [Example 372, 5-Amino-N-(2-(4-(4-(2-((2-chloro-4-(trifluoromethyl)phenyl)amino)-2-oxoethyl)-2-(3,6-dihydro-2H-pyran-4-yl)-5-ethyl-7-oxo-4,7-dihydro-[1,2,4]triazolo[1,5-a]pyrimidin-6-yl)piperazin-1-yl)-2-oxoethyl)-2-fluorobenzamide]
7 | 100 to 1000 | < 100 | CCc1c(N2CCN(C(=O)CNC(=O)c3cc(N)c(F)cc3F)CC2)c(=O)n2nc(C3=CCOCC3)nc2n1CC(=O)Nc1ccc(C(F)(F)F)cc1Cl [Example 373, 5-Amino-N-(2-(4-(4-(2-((2-chloro-4-(trifluoromethyl)phenyl)amino)-2-oxoethyl)-2-(3,6-dihydro-2H-pyran-4-yl)-5-ethyl-7-oxo-4,7-dihydro-[1,2,4]triazolo[1,5-a]pyrimidin-6-yl)piperazin-1-yl)-2-oxoethyl)-2,4-difluorobenzamide]
8 | < 100 | < 100 | CCNc1ccc(F)c(C(=O)NCC(=O)N2CCN(c3c(CC)n(CC(=O)Nc4ccc(C(F)(F)F)cc4Cl)c4nc(C5=CCOCC5)nn4c3=O)CC2)c1 [Example 374, N-(2-(4-(4-(2-((2-Chloro-4-(trifluoromethyl)phenyl)amino)-2-oxoethyl)-2-(3,6-dihydro-2H-pyran-4-yl)-5-ethyl-7-oxo-4,7-dihydro-[1,2,4]triazolo[1,5-a]pyrimidin-6-yl)piperazin-1-yl)-2-oxoethyl)-5-(ethylamino)-2-fluorobenzamide]
9 | < 100 | < 100 | CCc1c(N2CCN(C(=O)CNC(=O)c3ccc(F)s3)CC2)c(=O)n2nc(C3=CCOCC3)nc2n1CC(=O)Nc1ccc(C(F)(F)F)cc1Cl [Example 375, N-(2-(4-(4-(2-((2-Chloro-4-(trifluoromethyl)phenyl)amino)-2-oxoethyl)-2-(3,6-dihydro-2H-pyran-4-yl)-5-ethyl-7-oxo-4,7-dihydro-[1,2,4]triazolo[1,5-a]pyrimidin-6-yl)piperazin-1-yl)-2-oxoethyl)-5-fluorothiophene-2-carboxamide]
10 | < 100 | < 100 | CCc1c(N2CCN(C(=O)CNC(=O)c3ccno3)CC2)c(=O)n2nc(N3CCOCC3)nc2n1CC(=O)Nc1ccc(C(F)(F)F)cc1Cl [Example 376, N-(2-(4-(4-(2-((2-Chloro-4-(trifluoromethyl)phenyl)amino)-2-oxoethyl)-5-ethyl-2-morpholino-7-oxo-4,7-dihydro-[1,2,4]triazolo[1,5-a]pyrimidin-6-yl)piperazin-1-yl)-2-oxoethyl) isoxazole-5-carboxamide]
11 | < 100 | < 100 | CCc1c(N2CCN(C(=O)CNC(=O)c3ncnc(C)c3O)CC2)c(=O)n2nc(N3CCOCC3)nc2n1CC(=O)Nc1ccc(C(F)(F)F)cc1Cl [Example 377, N-(2-(4-(4-(2-((2-Chloro-4-(trifluoromethyl)phenyl)amino)-2-oxoethyl)-5-ethyl-2-morpholino-7-oxo-4,7-dihydro-[1,2,4]triazolo[1,5-a]pyrimidin-6-yl)piperazin-1-yl)-2-oxoethyl)-5-hydroxy-6-methylpyrimidine-4-carboxamide]
12 | < 100 | < 100 | CCc1c(N2CCN(C(=O)CNC(=O)c3cc(OC)ccc3F)CC2)c(=O)n2nc(C3=CCOCC3)nc2n1CC(=O)Nc1ccc(C(F)(F)F)cc1Cl [Example 378, N-(2-(4-(4-(2-((2-Chloro-4-(trifluoromethyl)phenyl)amino)-2-oxoethyl)-2-(3,6-dihydro-2H-pyran-4-yl)-5-ethyl-7-oxo-4,7-dihydro-[1,2,4]triazolo[1,5-a]pyrimidin-6-yl)piperazin-1-yl)-2-oxoethyl)-2-fluoro-5-methoxybenzamide]
13 | < 100 | < 100 | CCc1c(N2CCN(C(=O)CNC(=O)c3ccc(OC)cc3F)CC2)c(=O)n2nc(C3=CCOCC3)nc2n1CC(=O)Nc1ccc(C(F)(F)F)cc1Cl [Example 379, N-(2-(4-(4-(2-((2-Chloro-4-(trifluoromethyl)phenyl)amino)-2-oxoethyl)-2-(3,6-dihydro-2H-pyran-4-yl)-5-ethyl-7-oxo-4,7-dihydro-[1,2,4]triazolo[1,5-a]pyrimidin-6-yl)piperazin-1-yl)-2-oxoethyl)-2-fluoro-4-methoxybenzamide]
14 | 100 to 1000 | 100 to 1000 | CCc1c(N2CCN(C(=O)CNC(=O)c3ccc(NC)cc3F)CC2)c(=O)n2nc(C3=CCOCC3)nc2n1CC(=O)Nc1ccc(C(F)(F)F)cc1Cl [Example 380, N-(2-(4-(4-(2-((2-Chloro-4-(trifluoromethyl)phenyl)amino)-2-oxoethyl)-2-(3,6-dihydro-2H-pyran-4-yl)-5-ethyl-7-oxo-4,7-dihydro-[1,2,4]triazolo[1,5-a]pyrimidin-6-yl)piperazin-1-yl)-2-oxoethyl)-2-fluoro-4-(methylamino)benzamide]
15 | < 100 | < 100 | CCc1c(N2CCN(C(=O)CNC(=O)c3ccncc3O)CC2)c(=O)n2nc(C3=CCOCC3)nc2n1CC(=O)Nc1ccc(C(F)(F)F)cc1Cl [Example 381, N-(2-(4-(4-(2-((2-Chloro-4-(trifluoromethyl)phenyl)amino)-2-oxoethyl)-2-(3,6-dihydro-2H-pyran-4-yl)-5-ethyl-7-oxo-4,7-dihydro-[1,2,4]triazolo[1,5-a]pyrimidin-6-yl)piperazin-1-yl)-2-oxoethyl)-3-hydroxyisonicotinamide]
16 | < 100 | < 100 | CCc1c(N2CCN(C(=O)CNC(=O)c3cc(C#N)ccc3F)CC2)c(=O)n2nc(C3=CCOCC3)nc2n1CC(=O)Nc1ccc(C(F)(F)F)cc1Cl [Example 382, N-(2-(4-(4-(2-((2-Chloro-4-(trifluoromethyl)phenyl)amino)-2-oxoethyl)-2-(3,6-dihydro-2H-pyran-4-yl)-5-ethyl-7-oxo-4,7-dihydro-[1,2,4]triazolo[1,5-a]pyrimidin-6-yl)piperazin-1-yl)-2-oxoethyl)-5-cyano-2-fluorobenzamide]
17 | < 100 | < 100 | CCc1c(N2CCN(C(=O)CNC(=O)c3cccc4nonc34)CC2)c(=O)n2nc(C3=CCOCC3)nc2n1CC(=O)Nc1ccc(C(F)(F)F)cc1Cl [Example 383, N-(2-(4-(4-(2-((2-Chloro-4-(trifluoromethyl)phenyl)amino)-2-oxoethyl)-2-(3,6-dihydro-2H-pyran-4-yl)-5-ethyl-7-oxo-4,7-dihydro-[1,2,4]triazolo[1,5-a]pyrimidin-6-yl)piperazin-1-yl)-2-oxoethyl)benzo[c][1,2,5]oxadiazole-4-carboxamide]
18 | < 100 | < 100 | CCc1c(N2CCN(C(=O)CNC(=O)c3cnon3)CC2)c(=O)n2nc(C3=CCOCC3)nc2n1CC(=O)Nc1ccc(C(F)(F)F)cc1Cl [Example 384, N-(2-(4-(4-(2-((2-Chloro-4-(trifluoromethyl)phenyl)amino)-2-oxoethyl)-2-(3,6-dihydro-2H-pyran-4-yl)-5-ethyl-7-oxo-4,7-dihydro-[1,2,4]triazolo[1,5-a]pyrimidin-6-yl)piperazin-1-yl)-2-oxoethyl)-1,2,5-oxadiazole-3-carboxamide]
